The source of these data is ChEMBL document CHEMBL5500408, “A New Gramicidin S Analogue with Potent Antibacterial Activity and Negligible Hemolytic Toxicity” (J Med Chem, 2024).

Structures are written as SMILES. ≈ marks a conversion by molar mass, not a printed value. Residues, ends and D or L forms follow the SMILES beside them.

The test system of series [1] is Staphylococcus aureus. Nature of the series: Antibacterial activity against methicillin-sensitive Staphylococcus aureus ATCC 29213 incubated for 16 to 20 hrs by CLSI based broth microdilution method. It counts as functional. To be noted: time 16-20 hrs.
Series [2] can be described thus: Hemolytic activity in sheep erythrocytes incubated for 30 mins by absorbance based assay. It counts as toxicity, cell-based, Ovis aries, Erythrocyte.
Series [3] relates to Staphylococcus aureus. Nature of the series: Antibacterial activity against methicillin-resistant Staphylococcus aureus […] incubated for 16 to 20 hrs by CLSI based broth microdilution method. It is filed as functional. Conditions: time 16-20 hrs.
A short description of series [4]: Retention time of the compound by RP-HPLC analysis. It is filed as physicochemical.
Series [5] deals with Staphylococcus aureus. Nature of the series: Antibacterial activity against methicillin-resistant Staphylococcus aureus ATCC USA300 incubated for 16 to 20 hrs by CLSI based broth microdilution method. It is filed as functional. Conditions: time 16-20 hrs.
Series [6] deals with Staphylococcus aureus. Nature of the series: Antibacterial activity against methicillin-sensitive Staphylococcus aureus ATCC 49775 incubated for 16 to 20 hrs by CLSI based broth microdilution method. It counts as functional. Conditions: time 16-20 hrs.
Series [7] in a line: Nephrotoxicity against HEK293 cells assessed as cell viability at 12.5 uM incubated for 24 hrs by MTT assay relative to control. Conditions: human, read-out: Activity. It is filed as toxicity, cell-based.
In another series the test system is HEK293. Nature of the series: Nephrotoxicity against HEK293 cells at MIC incubated for 24 hrs by MTT assay. To be noted: human, hek293, 24 h. It counts as toxicity, cell-based.

Take `CC(C)C[C@@H]1NC(=O)[C@H](CCCN)NC(=O)[C@H](C(C)C)NC(=O)[C@H](Cc2c[nH]cn2)NC(=O)[C@@H](Cc2ccccc2)NC(=O)[C@H](CC(C)C)NC(=O)[C@H](CCCN)NC(=O)[C@H](C(C)C)NC(=O)[C@H](Cc2c[nH]cn2)NC(=O)[C@@H](Cc2ccccc2)NC1=O`: the MIC against Staphylococcus aureus [1] was found to be 64 µg/mL (≈ 52.4 µM); against Staphylococcus aureus [3], 64 µg/mL (≈ 52.4 µM); against Staphylococcus aureus [5], 128 µg/mL (≈ 105 µM); against Staphylococcus aureus [6], 64 µg/mL (≈ 52.4 µM). In series [2], this molecule gave an HC50 at 0.5 h of more than 100 µM. This molecule registered a Retention_time in series [4] of 14.74 min.

Take `CC(C)C[C@@H]1NC(=O)[C@H](CCCN)NC(=O)[C@H](C(C)C)NC(=O)[C@@H]2CCCN2C(=O)[C@@H](Cc2ccccc2)NC(=O)[C@H](CC(C)C)NC(=O)[C@H](CCCNC(=N)N)NC(=O)[C@H](C(C)C)NC(=O)[C@@H]2CCCN2C(=O)[C@@H](CCCNC(=N)N)NC1=O` (HELM PEPTIDE1{L.[dF].P.V.[Orn].L.[dR].P.V.R}$PEPTIDE1,PEPTIDE1,1:R1-10:R2$$$V2.0): the MIC in the series with Staphylococcus aureus [1], against Staphylococcus aureus [3], with Staphylococcus aureus [5] and in the series on Staphylococcus aureus [6] was 8 µg/mL (≈ 6.71 µM) throughout. This molecule also yielded a concentration for 50% haemolysis (HC50) at 0.5 h in series [2] of 87.2 µM. The molecule further gave a Retention_time in series [4] of 16.47 min.

Consider `CC(C)C[C@@H]1NC(=O)[C@H](CCCNC(=N)N)NC(=O)[C@H](C(C)C)NC(=O)[C@@H]2CCCN2C(=O)[C@@H](Cc2ccccc2)NC(=O)[C@H](CC(C)C)NC(=O)[C@H](CCCNC(=N)N)NC(=O)[C@H](C(C)C)NC(=O)[C@@H]2CCCN2C(=O)[C@@H](Cc2ccccc2)NC1=O`, for which the MIC in the series with Staphylococcus aureus [1], against Staphylococcus aureus [3], with Staphylococcus aureus [5] and against Staphylococcus aureus [6] was 8 µg/mL (≈ 6.53 µM) each time. In series [2], the HC50 at 0.5 h came out at 25.4 µM. In series [4], this molecule had a Retention_time of 18.62 min.

As to `CC(C)C[C@@H]1NC(=O)[C@H](CCCN)NC(=O)[C@H](C(C)C)NC(=O)[C@@H]2CCCN2C(=O)[C@@H](Cc2c[nH]cn2)NC(=O)[C@H](CC(C)C)NC(=O)[C@H](CCCN)NC(=O)[C@H](C(C)C)NC(=O)[C@@H]2CCCN2C(=O)[C@@H](Cc2c[nH]cn2)NC1=O`, the MIC is 256 µg/mL (≈ 228 µM) in the series on Staphylococcus aureus [1], 256 µg/mL (≈ 228 µM) in the series on Staphylococcus aureus [3], more than 256 µg/mL against Staphylococcus aureus [5] and 256 µg/mL (≈ 228 µM) against Staphylococcus aureus [6]. Also, the HC50 at 0.5 h in series [2] is more than 100 µM. Further, in series [4], the Retention_time came to 14.01 min.

As to `CC(C)C[C@@H]1NC(=O)[C@H](CCCN)NC(=O)[C@H](C(C)C)NC(=O)[C@@H]2CCCN2C(=O)[C@@H](Cc2ccccc2)NC(=O)[C@H](CC(C)C)NC(=O)[C@H](CCCNC(=N)N)NC(=O)[C@H](C(C)C)NC(=O)[C@@H]2CCCN2C(=O)[C@@H](Cc2ccccc2)NC1=O`, the minimum inhibitory concentration (MIC) with Staphylococcus aureus [1] turned out to be 8 µg/mL (≈ 6.76 µM); against Staphylococcus aureus [3], 16 µg/mL (≈ 13.5 µM); in the series with Staphylococcus aureus [5], 8 µg/mL (≈ 6.76 µM); in the series with Staphylococcus aureus [6] it was 4 µg/mL (≈ 3.38 µM). The molecule also yielded an HC50 at 0.5 h in series [2] of 46.2 µM. Further, the Retention_time in series [4] was 18.74 min.

As for `CC(C)C[C@@H]1NC(=O)[C@H](CCCNC(=N)N)NC(=O)[C@H](C(C)C)NC(=O)[C@@H]2CCCN2C(=O)[C@@H](Cc2c[nH]cn2)NC(=O)[C@H](CC(C)C)NC(=O)[C@H](CCCN)NC(=O)[C@H](C(C)C)NC(=O)[C@@H]2CCCN2C(=O)[C@@H](Cc2ccccc2)NC1=O`, the MIC with Staphylococcus aureus [1], with Staphylococcus aureus [3], with Staphylococcus aureus [5] and in the series on Staphylococcus aureus [6] was 16 µg/mL (≈ 13.6 µM) in each case. The molecule further came in with an HC50 at 0.5 h in series [2] of more than 100 µM. Further, in series [4], the Retention_time was 16.09 min.

As to `CC(C)C[C@@H]1NC(=O)[C@H](CCCNC(=N)N)NC(=O)[C@H](C(C)C)NC(=O)[C@@H]2CCCN2C(=O)[C@@H](Cc2ccccc2)NC(=O)[C@H](CC(C)C)NC(=O)[C@H](CCCN)NC(=O)[C@H](C(C)C)NC(=O)[C@@H]2CCCN2C(=O)[C@@H](CCCNC(=N)N)NC1=O`, the MIC against Staphylococcus aureus [1], against Staphylococcus aureus [3], in the series on Staphylococcus aureus [5] and in the series on Staphylococcus aureus [6] was 8 µg/mL (≈ 6.71 µM) each time. In series [2], this molecule displayed an HC50 at 0.5 h of more than 100 µM. In series [4], this molecule displayed a Retention_time of 16.47 min.

With `CC(C)C[C@@H]1NC(=O)[C@H](CCCN)NC(=O)[C@H](C(C)C)NC(=O)[C@@H]2CCCN2C(=O)[C@@H](Cc2ccccc2)NC(=O)[C@H](CC(C)C)NC(=O)[C@H](CCCN)NC(=O)[C@H](C(C)C)NC(=O)[C@@H]2CCCN2C(=O)[C@@H](CCCNC(=N)N)NC1=O` (HELM PEPTIDE1{L.[dF].P.V.[Orn].L.[dR].P.V.[Orn]}$PEPTIDE1,PEPTIDE1,1:R1-10:R2$$$V2.0), the minimum inhibitory concentration (MIC) against Staphylococcus aureus [1], in the series with Staphylococcus aureus [3], in the series on Staphylococcus aureus [5] and against Staphylococcus aureus [6] was 8 µg/mL (≈ 6.95 µM) throughout. Moreover, the HC50 at 0.5 h in series [2] is more than 100 µM. In series [4], this molecule returned a Retention_time of 16.22 min. Besides, the viability at 24 h, 12.5 µM in series [7] was approximately 90%. Moreover, the Activity result in the series on HEK293 was “Non-Toxic”.

In the case of `CC(C)C[C@@H]1NC(=O)[C@H](CCCN)NC(=O)[C@H](C(C)C)NC(=O)[C@@H]2CCCN2C(=O)[C@@H](CCCNC(=N)N)NC(=O)[C@H](CC(C)C)NC(=O)[C@H](CCCN)NC(=O)[C@H](C(C)C)NC(=O)[C@@H]2CCCN2C(=O)[C@@H](CCCNC(=N)N)NC1=O`, the MIC came out at 16 µg/mL (≈ 13.8 µM) in the series with Staphylococcus aureus [1], 16 µg/mL (≈ 13.8 µM) with Staphylococcus aureus [3], 32 µg/mL (≈ 27.6 µM) in the series with Staphylococcus aureus [5] and 32 µg/mL (≈ 27.6 µM) with Staphylococcus aureus [6]. The same molecule came in with an HC50 at 0.5 h in series [2] of more than 100 µM. This molecule also showed a Retention_time in series [4] of 14.56 min.

On to `CC(C)C[C@@H]1NC(=O)[C@H](CCCN)NC(=O)[C@H](C(C)C)NC(=O)[C@@H]2CCCN2C(=O)[C@@H](Cc2ccccc2)NC(=O)[C@H](CC(C)C)NC(=O)[C@H](CCCN)NC(=O)[C@H](C(C)C)NC(=O)[C@@H]2CCCN2C(=O)[C@@H](Cc2ccccc2)NC1=O` [GRAMICIDIN S] (HELM PEPTIDE1{L.[dF].P.V.[Orn].L.[dF].P.V.[Orn]}$PEPTIDE1,PEPTIDE1,1:R1-10:R2$$$V2.0), for which the MIC in the series on Staphylococcus aureus [1], in the series on Staphylococcus aureus [3], against Staphylococcus aureus [5] and in the series with Staphylococcus aureus [6] was 4 µg/mL (≈ 3.5 µM) in each case. In series [2], the HC50 at 0.5 h came out at 60.1 µM. For the same molecule, the Retention_time in series [4] is listed as 18.57 min. The viability at 24 h, 12.5 µM in series [7] was 25%.
